Source: US20050222040A1, “Vertebrate peptide modulators of lipid metabolism” (BLM Group, Inc., priority 2004, published 2005)
Non-standard residues stand in square brackets, D forms with d. No end group written: not given here. pGlu = O=C1CC[C@@H](C(=O)O)N1

Test system: human adipocytes
Assay: Glycerol release assay (lipolysis) in differentiated human adipocytes
Type: cell-based
Conditions: for lipid mobilization activity of insect AKH/HTP peptides and alanine walk analogs (result in words): Example 2, Table 8 peptides; for Percent Glycerol Release over Background / glycerol releasing activity (result in words): human adipocytes in vitro; for glycerol releasing activity (result in words): 100 nanomolar, 1 micromolar and 10 micromolar
Description: Two assay methods, giving equivalent results, can be used. The results disclosed in Example 2, below, were obtained using an in vitro assay based on measurement of glycerol released into the medium. An alternative assay system, based on the release of radioisotope from adipocytes incubated overnight with 9,10 ^3H-palmitate, can also be used.
Human subcutaneous preadipocytes, obtained by liposuction (Zen-Bio, Inc. Research Triangle Park, N.C.), are cultured for 3 weeks in 96-well plates in Differentiation medium (DMEM/Hams F10 [1/1, v/v], 15 mM Hepes buffer, 3% FBS, Penicillin/Streptomycin, 33 uM Biotin 17 uM Pantothenate, 100 nM human insulin, 0.5 uM Dexamethasone, 0.2 mM IBMX, and 10 uM thiazolidinedione.
The assay based on glycerol release is performed by removing the culture medium from differentiated cells, treating the cells with 0.1 ml of the test compounds at the appropriate doses in adipocyte medium (DMEM/Hank's F-10, 15 mM HEPES buffer, 3% FBS, penicillin/streptomycin) followed by incubation at 37 degrees Celsius for 2-5 hours. Isoproterenol is used as positive control and all assays are done in triplicate. At the end of the time points, 0.1 ml of the conditioned media from each well is transferred to a well of a new plate. Glycerol is quantified using standard enzymatic methods, with absorption by oxidized quinoneimine at 540 nm. Briefly, lipolytic activity can be assayed simply by the measurement of glycerol released into the medium since glycerokinase activity is not present in adipocytes (Carpene, C., Methods in Molecular Biology 155: Adipose Tissue Protocols, 1999). Glycerol released to the medium is phosphorylated by adenosine triphosphate (ATP) forming glycerol-1-phosphate (G-1-P) and adenosine-5′-diphosphate (ADP) in the reaction catalyzed by glycerol kinase. G-1-P is then oxidized by glycerol phosphate oxidase to dihydroxyacetone phosphate (DAP) and hydrogen peroxide (H2O2). […] The increase in absorbance at 540 nm is directly proportional to glycerol concentration of the sample.

[1] = peptide concentration 1 micro M
[2] = peptide concentration 10 micro M

Molecule	lipid mobilization activity of insect AKH/HTP peptides and alanine walk analogs (result in words)	Percent Glycerol Release over Background (peptide concentration 100 nM)	Percent Glycerol Release over Background [1]	Percent Glycerol Release over Background [2]	glycerol releasing activity (result in words)
pGlu-Leu-Thr-Phe-Thr-Ser-Ser-Trp-GlyNH2 ([pGlu]LTFTSSWG-NH2; SMILES CC(C)C[C@H](NC(=O)[C@@H]1CCC(=O)N1)C(=O)N[C@H](C(=O)N[C@@H](Cc1ccccc1)C(=O)N[C@H](C(=O)N[C@@H](CO)C(=O)N[C@@H](CO)C(=O)N[C@@H](Cc1c[nH]c2ccccc12)C(=O)NCC(N)=O)[C@@H](C)O)[C@@H](C)O; listed as Manduca sexta) [SEQ ID NO: 23, reference compound]	active	–	–	–	–
CC(C)NCC(O)c1ccc(O)c(O)c1 (stereo not shown) [Iso, Isoproterenol, reference compound]	–	213%	262%	206%	–
pGlu-Leu-Asn-Phe-Thr-Ala-Ser-Trp ([pGlu]LNFTASW; listed as Homo sapiens) [Peptide 60]	–	–	–	–	no measurable activity
QLNFTASW-NH2 [Peptide 54]	–	2.8%	4.7%	8.5%	–
pGlu-Leu-Asn-Phe-Thr-Ala-Ser-Trp-Gly ([pGlu]LNFTASWG; listed as Homo sapiens) [Peptide 51]	–	3.8%	24.5%	34.9%	–
pGlu-Leu-Asn-Phe-Thr-Pro-Asn-Trp-Gly-ThrNH2 ([pGlu]LNFTPNWGT-NH2; SMILES CC(C)C[C@H](NC(=O)[C@@H]1CCC(=O)N1)C(=O)N[C@@H](CC(N)=O)C(=O)N[C@@H](Cc1ccccc1)C(=O)N[C@H](C(=O)N1CCC[C@H]1C(=O)N[C@@H](CC(N)=O)C(=O)N[C@@H](Cc1c[nH]c2ccccc12)C(=O)NCC(=O)N[C@H](C(N)=O)[C@@H](C)O)[C@@H](C)O; listed as Locusta migratoria) [SEQ ID NO: 18, reference compound]	active	–	–	–	–
pGlu-Val-Asn-Phe-Ser-Pro-Gly-Trp-Gly-ThrNH2 ([pGlu]VNFSPGWGT-NH2; SMILES CC(C)[C@H](NC(=O)[C@@H]1CCC(=O)N1)C(=O)N[C@@H](CC(N)=O)C(=O)N[C@@H](Cc1ccccc1)C(=O)N[C@@H](CO)C(=O)N1CCC[C@H]1C(=O)NCC(=O)N[C@@H](Cc1c[nH]c2ccccc12)C(=O)NCC(=O)N[C@H](C(N)=O)[C@@H](C)O; listed as Blaberus discoidalis) [SEQ ID NO: 19, reference compound]	active	–	–	–	–
QLNFTASWG-NH2 [Peptide 72]	–	18%	11.3%	18.9%	–
QLNFTASW [Peptide 53]	–	3.8%	36.8%	18.9%	–
pGlu-Leu-Asn-Phe-Thr-Ala-Ser-TrpNH2 ([pGlu]LNFTASW-NH2; SMILES CC(C)C[C@H](NC(=O)[C@@H]1CCC(=O)N1)C(=O)N[C@@H](CC(N)=O)C(=O)N[C@@H](Cc1ccccc1)C(=O)N[C@H](C(=O)N[C@@H](C)C(=O)N[C@@H](CO)C(=O)N[C@@H](Cc1c[nH]c2ccccc12)C(N)=O)[C@@H](C)O; listed as Homo sapiens) [Peptide 55]	–	1.9%	5.7%	13.2%	low activity
QLNFTASWG [Peptide 52]	–	0.9%	13.2%	17%	–
pGlu-Leu-Asn-Phe-Thr-Ala-Ser-Trp-GlyNH2 ([pGlu]LNFTASWG-NH2; SMILES CC(C)C[C@H](NC(=O)[C@@H]1CCC(=O)N1)C(=O)N[C@@H](CC(N)=O)C(=O)N[C@@H](Cc1ccccc1)C(=O)N[C@H](C(=O)N[C@@H](C)C(=O)N[C@@H](CO)C(=O)N[C@@H](Cc1c[nH]c2ccccc12)C(=O)NCC(N)=O)[C@@H](C)O; listed as Homo sapiens) [Peptide 73]	–	0%	0.9%	3.8%	low activity
pGlu-Leu-Asn-Phe-Ser-Thr-Gly-TrpNH2 ([pGlu]LNFSTGW-NH2; SMILES CC(C)C[C@H](NC(=O)[C@@H]1CCC(=O)N1)C(=O)N[C@@H](CC(N)=O)C(=O)N[C@@H](Cc1ccccc1)C(=O)N[C@@H](CO)C(=O)N[C@H](C(=O)NCC(=O)N[C@@H](Cc1c[nH]c2ccccc12)C(N)=O)[C@@H](C)O; listed as Schistocerca gregaria) [SEQ ID NO: 17, reference compound]	active	–	–	–	–
